Data as given in ChEMBL document CHEMBL6127128, “Discovery of the First-in-Class Dual-Target ROCK/HDAC Inhibitor with Potent Antitumor Efficacy in Vivo That Trigger Antitumor Immunity” (J Med Chem, 2024).
Calls of active or inactive are those of the source. No cut-off for these calls is given here.

Legend:
[1] = biological target: Rho-associated protein kinase 1 (Homo sapiens, UniProt Q13464); assay: Inhibition of N-terminal GST-tagged human recombinant ROCK1 (17 to 535 residues) expressed in baculovirus-infected Sf9 cells by HTRF KinEASE assay
Chain of Rho-associated protein kinase 1 (Q13464 whole entry, the tested form may be a part): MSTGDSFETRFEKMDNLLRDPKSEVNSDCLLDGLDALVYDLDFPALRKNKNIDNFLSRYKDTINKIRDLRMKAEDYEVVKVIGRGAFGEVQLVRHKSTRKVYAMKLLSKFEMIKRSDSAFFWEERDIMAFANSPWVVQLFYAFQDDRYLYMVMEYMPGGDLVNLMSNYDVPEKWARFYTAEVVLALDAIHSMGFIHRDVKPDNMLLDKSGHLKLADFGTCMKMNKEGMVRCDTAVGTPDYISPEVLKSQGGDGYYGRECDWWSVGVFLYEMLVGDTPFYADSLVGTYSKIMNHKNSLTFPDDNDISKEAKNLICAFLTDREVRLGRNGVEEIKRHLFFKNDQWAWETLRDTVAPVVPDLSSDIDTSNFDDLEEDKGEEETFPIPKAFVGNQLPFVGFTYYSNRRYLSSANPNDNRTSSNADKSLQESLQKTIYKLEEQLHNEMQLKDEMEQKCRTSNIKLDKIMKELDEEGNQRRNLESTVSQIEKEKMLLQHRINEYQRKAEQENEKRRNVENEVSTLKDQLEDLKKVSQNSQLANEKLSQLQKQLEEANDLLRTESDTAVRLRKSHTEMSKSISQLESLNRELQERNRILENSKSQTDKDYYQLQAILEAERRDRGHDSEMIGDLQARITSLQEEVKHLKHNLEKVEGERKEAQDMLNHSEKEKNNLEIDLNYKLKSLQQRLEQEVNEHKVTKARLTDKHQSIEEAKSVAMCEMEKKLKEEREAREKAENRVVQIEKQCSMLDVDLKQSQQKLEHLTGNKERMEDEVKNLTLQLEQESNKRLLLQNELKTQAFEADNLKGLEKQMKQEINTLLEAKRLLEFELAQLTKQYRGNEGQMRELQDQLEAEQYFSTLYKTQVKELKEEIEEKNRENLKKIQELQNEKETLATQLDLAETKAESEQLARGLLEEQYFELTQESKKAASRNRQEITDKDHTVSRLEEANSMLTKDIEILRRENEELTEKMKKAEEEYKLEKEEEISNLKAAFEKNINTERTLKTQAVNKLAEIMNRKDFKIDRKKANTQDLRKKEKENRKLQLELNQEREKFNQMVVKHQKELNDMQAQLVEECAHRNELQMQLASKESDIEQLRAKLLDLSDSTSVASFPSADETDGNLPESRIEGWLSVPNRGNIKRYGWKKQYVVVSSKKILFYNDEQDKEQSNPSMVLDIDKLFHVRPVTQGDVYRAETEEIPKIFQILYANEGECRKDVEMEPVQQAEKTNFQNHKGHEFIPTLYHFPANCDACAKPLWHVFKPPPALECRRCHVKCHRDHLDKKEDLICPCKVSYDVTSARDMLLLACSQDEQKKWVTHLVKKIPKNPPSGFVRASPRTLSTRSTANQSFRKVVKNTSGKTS

[2] = biological target: Rho-associated protein kinase 2 (Homo sapiens, UniProt O75116); assay: Inhibition of N-terminal GST-tagged human recombinant wild type ROCK2 (1 to 553 residues) expressed in baculovirus-infected Sf21 cells by HTRF KinEASE assay
Chain of Rho-associated protein kinase 2 (O75116 whole entry, the tested form may be a part): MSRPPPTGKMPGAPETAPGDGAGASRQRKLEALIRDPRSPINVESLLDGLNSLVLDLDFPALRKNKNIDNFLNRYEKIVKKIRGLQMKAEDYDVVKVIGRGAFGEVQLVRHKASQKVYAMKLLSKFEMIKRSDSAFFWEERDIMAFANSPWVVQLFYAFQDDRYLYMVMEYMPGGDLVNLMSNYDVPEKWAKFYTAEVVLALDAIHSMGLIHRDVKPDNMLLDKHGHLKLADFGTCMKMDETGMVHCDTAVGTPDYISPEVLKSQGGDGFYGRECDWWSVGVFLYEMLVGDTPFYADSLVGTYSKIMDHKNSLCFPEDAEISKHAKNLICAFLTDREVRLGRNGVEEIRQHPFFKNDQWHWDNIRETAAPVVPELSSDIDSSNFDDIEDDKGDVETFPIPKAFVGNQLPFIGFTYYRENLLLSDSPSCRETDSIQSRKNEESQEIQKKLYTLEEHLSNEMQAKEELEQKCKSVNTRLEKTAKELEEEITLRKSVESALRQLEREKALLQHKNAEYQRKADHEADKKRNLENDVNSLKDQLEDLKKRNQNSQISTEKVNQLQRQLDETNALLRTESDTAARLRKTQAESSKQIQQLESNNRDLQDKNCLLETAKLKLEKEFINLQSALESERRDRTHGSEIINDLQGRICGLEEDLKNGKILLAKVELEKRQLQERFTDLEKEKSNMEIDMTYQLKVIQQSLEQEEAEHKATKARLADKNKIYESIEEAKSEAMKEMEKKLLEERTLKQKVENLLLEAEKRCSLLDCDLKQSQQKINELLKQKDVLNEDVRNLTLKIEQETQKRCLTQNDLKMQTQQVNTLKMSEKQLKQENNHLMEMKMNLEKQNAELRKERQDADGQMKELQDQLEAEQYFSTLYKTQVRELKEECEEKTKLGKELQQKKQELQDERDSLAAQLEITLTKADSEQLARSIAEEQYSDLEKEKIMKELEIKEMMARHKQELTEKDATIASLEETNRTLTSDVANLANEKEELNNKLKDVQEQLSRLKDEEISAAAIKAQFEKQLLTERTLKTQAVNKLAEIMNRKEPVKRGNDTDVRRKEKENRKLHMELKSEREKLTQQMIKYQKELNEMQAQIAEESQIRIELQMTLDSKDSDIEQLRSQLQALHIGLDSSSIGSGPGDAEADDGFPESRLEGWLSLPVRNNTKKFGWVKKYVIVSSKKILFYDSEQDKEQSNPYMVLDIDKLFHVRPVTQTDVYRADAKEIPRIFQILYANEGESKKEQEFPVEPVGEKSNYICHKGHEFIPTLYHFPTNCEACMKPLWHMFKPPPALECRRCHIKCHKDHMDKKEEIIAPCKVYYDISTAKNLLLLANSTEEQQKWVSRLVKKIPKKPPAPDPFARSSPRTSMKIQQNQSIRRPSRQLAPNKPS

[3] = biological target: T1, Polyamine deacetylase HDAC10 (Homo sapiens, UniProt Q969S8); assay: Inhibition of HDAC10 (unknown origin) using Ac-Arg-His-Lys(Ac)-Lys(Ac)-AMC as substrate preincubated for 5 mins followed by substrate addition for 30 mins and measured following trypsin addition for 30 mins by fluorescence based analysis
T1 sequence (Q969S8 whole entry): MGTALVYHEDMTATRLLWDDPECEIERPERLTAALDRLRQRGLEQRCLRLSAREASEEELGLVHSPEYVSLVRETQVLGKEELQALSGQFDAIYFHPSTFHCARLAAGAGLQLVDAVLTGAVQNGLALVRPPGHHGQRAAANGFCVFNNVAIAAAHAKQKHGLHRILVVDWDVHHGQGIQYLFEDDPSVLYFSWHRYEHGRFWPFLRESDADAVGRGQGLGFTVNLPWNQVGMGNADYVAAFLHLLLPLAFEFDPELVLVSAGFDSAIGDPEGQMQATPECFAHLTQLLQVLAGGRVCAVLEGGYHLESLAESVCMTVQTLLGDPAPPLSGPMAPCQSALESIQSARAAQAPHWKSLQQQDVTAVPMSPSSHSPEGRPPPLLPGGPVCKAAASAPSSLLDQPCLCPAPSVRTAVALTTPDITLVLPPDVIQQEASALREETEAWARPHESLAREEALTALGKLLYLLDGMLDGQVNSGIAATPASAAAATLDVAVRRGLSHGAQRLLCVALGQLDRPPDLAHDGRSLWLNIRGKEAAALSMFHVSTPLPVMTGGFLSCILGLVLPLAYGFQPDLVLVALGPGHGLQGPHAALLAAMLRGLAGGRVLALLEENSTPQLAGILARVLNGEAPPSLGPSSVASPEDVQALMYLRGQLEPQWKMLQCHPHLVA

Histone deacetylase 11 = biological target: T2, Histone deacetylase 11 (Homo sapiens, UniProt Q96DB2); assay: Inhibition of HDAC11 (unknown origin) using Ac-Leu-Gly-Lys(Ac)-AMC as substrate preincubated for 5 mins followed by substrate addition for 30 mins and measured following trypsin addition for 30 mins by fluorescence based analysis
T2 sequence (Q96DB2 whole entry): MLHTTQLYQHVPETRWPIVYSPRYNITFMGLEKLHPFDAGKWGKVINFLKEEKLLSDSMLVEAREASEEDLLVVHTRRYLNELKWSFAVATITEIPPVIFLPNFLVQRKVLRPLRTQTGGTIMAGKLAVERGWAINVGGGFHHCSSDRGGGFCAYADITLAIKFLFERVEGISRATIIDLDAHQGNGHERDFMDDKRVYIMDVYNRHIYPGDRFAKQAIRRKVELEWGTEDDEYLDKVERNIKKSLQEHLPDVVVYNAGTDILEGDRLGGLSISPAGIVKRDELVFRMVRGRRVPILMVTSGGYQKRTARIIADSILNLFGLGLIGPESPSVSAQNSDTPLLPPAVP

MDA-MB-231 = assay: Induction of immunogenic cell death-associated DAMP release in human MDA-MB-231 cells assessed as decrease in HMGB1 expression level at 1 to 10 uM incubated for 24 hrs by western blot analysis; format: functional, cell-based; conditions: dose 1-10 µM
[4] = Toxicity against Balb/c mouse implanted with mouse 4T1 cells assessed as effect on morphological changes in spleen at 25 to 50 mg/kg, po administered daily for 15 days by Hematoxylin-Eosin staining based analysis; format: organism-based; conditions: in vivo, 360 h, dose 25-50 mg/kg, time 15 day
[5] = Toxicity against Balb/c mouse implanted with mouse 4T1 cells assessed as effect on morphological changes in kidneys at 25 to 50 mg/kg, po administered daily for 15 days by Hematoxylin-Eosin staining based analysis; format: organism-based; conditions: in vivo, 360 h, dose 25-50 mg/kg, time 15 day
[6] = Half-life in Balb/c mouse at 1 mg/kg, iv measured for 24 hrs by LC-MS/MS analysis; format: ADME, organism-based; conditions: in vivo
[7] = Tmax in Balb/c mouse at 1 mg/kg, iv measured for 24 hrs by LC-MS/MS analysis; format: ADME, organism-based; conditions: in vivo
[8] = Half-life in Balb/c mouse at 50 mg/kg, po measured for 24 hrs by LC-MS/MS analysis; format: ADME, organism-based; conditions: in vivo
[9] = AUC (0 to infinity) in Balb/c mouse at 50 mg/kg, po measured for 24 hrs by LC-MS/MS analysis; format: ADME, organism-based; conditions: in vivo
[10] = Oral bioavailability in Balb/c mouse at 50 mg/kg measured for 24 hrs by LC-MS/MS analysis; format: ADME, organism-based; conditions: in vivo
Mus musculus = assay: Induction of immunogenic cell death-associated DAMP release in tumor of Balb/c mouse implanted with mouse 4T1 cells assessed as increase in CRT expression at 25 to 50 mg/kg, po administered daily for 15 days by immunofluorescence analysis; format: functional, organism-based; conditions: dose 25-50 mg/kg, time 15.0 day
4T1 [11] = assay: Antitumor immunity against mouse 4T1 cells implanted in Balb/c mouse assessed as increase in CD86+ dendritic cells in tumor tissue at 25 mg/kg, po administered daily for 15 days by immunohistochemistry; format: functional, organism-based; conditions: time 15.0 day
4T1 [12] = assay: Antitumor immunity against mouse 4T1 cells implanted in Balb/c mouse assessed as increase in CD86+ dendritic cells in tumor tissue at 50 mg/kg, po administered daily for 15 days by immunohistochemistry relative to SAHA; format: functional; conditions: time 15 day
4T1 [13] = assay: Antitumor immunity against mouse 4T1 cells implanted in Balb/c mouse assessed as increase in CD3+ T cells in tumor tissue at 25 mg/kg, po administered daily for 15 days by flow cytometry; format: functional, organism-based; conditions: time 15.0 day
4T1 [14] = assay: Antitumor immunity against mouse 4T1 cells implanted in Balb/c mouse assessed as increase in CD3+ T cells in tumor tissue at 50 mg/kg, po administered daily for 15 days by flow cytometry relative to SAHA; format: functional; conditions: time 15 day

SMILES: O=C(CCCCCCNC(=O)c1cc2cc(-c3cn[nH]c3)ccc2s1)NO
- IC50 [1]: 58.2 nM
- IC50 [2]: 255 nM
- IC50 [3]: > 10000 nM
- IC50 (Histone deacetylase 11): > 10000 nM
- Activity (MDA-MB-231): Active
- Activity [4]: Non-Toxic
- Activity [5]: Non-Toxic
- half-life [6]: 22.3 h
- Tmax [7]: 4.8 min
- half-life [8]: 12.2 h
- AUC(0-inf) [9]: 5.95 ng·h/mL
- bioavailability [10]: 0.13%
- Activity (Mus musculus): Active
- Activity (4T1 [11]): Active
- fold change (FC) (4T1 [12]): 1.82
- Activity (4T1 [13]): Active
- fold change (FC) (4T1 [14]): 1.36
